The source of these data is paper PMC9964319, “Half-Sandwich Rhodium Complexes with Releasable N-Donor Monodentate Ligands: Solution Chemical Properties and the Possibility for Acidosis Activation” (Pharmaceutics, 2023).

Structures are written as SMILES.

Usually pKa stands for the pH at which an ionisable group is half protonated. The low end stands for a stronger acid or weaker base, the high end for a weaker acid or stronger base.

In one series the test system is testicular tumors. Details: method as in doi:10.2174/2210298102666220404102936. The conditions noted are these: cited from earlier work.
The nature of series [1]: Release of pyridine ligand from synthesized complex followed by 1H NMR. The series is classed as physicochemical. From the text:
The rate of the release of the monodentate ligand from the synthesized mixed-ligand complex is also of interest. Although a mixed-ligand complex with low stability should release its monodentate ligand easily, kinetic inertness has a major effect on reaching the equilibrium state. In contrast to their non-organometallic octahedral counterparts, half-sandwich Ru(II) and Rh(III) complexes have faster ligand exchange reactions.

Series [2] can be described thus: Stability of mixed-ligand complex in methanol (1H NMR in CD3OD). Format: physicochemical. From the text: ^1H NMR (CD3OD, ppm, 500 MHz, standard: δ 3.31 (solvent residual peak)): δ 9.76 (dd, J = 5.2 Hz, 0.87 Hz, 2H, phen-H^2,9), δ 8.99 (dd, J = 8.3 Hz, 1.2 Hz, 2H, phen-H^4,7), δ 8.49 (d, J = 5.2 Hz, 2H, Py-H^2,6), δ 8.40 (dd, J = 8.2 Hz, 5.2 Hz, 2H, phen-H^3,8), δ 8.25 (s, 2H, phen-H^5,6), δ 7.91 (tt, J = 7.7 Hz, 1.4 Hz, 1H, Py-H^4), δ 7.46 (t, J = 7.1 Hz, 2H, Py-H^3,5), δ 1.75 (s, 15H, Cp*-H^methyl). Deuteration of Cp* is visible and highlighted in the spectrum in Figure S9. A small amount (<5%) of dissociated complex is visible in equilibrium with the complex, indicating the low stability of the mixed-ligand complex even in methanol.

Series [3] is described as follows: Proton dissociation constants of the coordinated water in [M(arene)(N,N/O)(H2O)]2+/+ complexes (UV-vis titration). The conditions noted are these: I = 0.10 M (KCl); t = 25.0 °C; UV-vis. From the text:
The proton dissociation of the aqua ligand in the [M(arene)(N,N/O)(H2O)]^2+/+ complexes (Scheme 2) results in the inert mixed-hydroxido species (general formula: [M(arene)(N,N/O)(OH)]^+/0).

Series [4] in a line: Kinetics of mixed-ligand complex formation followed by UV-vis. The series is classed as physicochemical. The conditions noted are these: complex:1-methylimidazole 1:2, pH 7.4 (phen, Figure 2) or 5.94 (en, Figure S23). Here is the method:
Firstly, the reactions were followed by UV-vis spectrometry, and significant changes in the charge transfer bands were observed. Based on these preliminary measurements, the waiting time needed prior to measurement was determined. Generally, the reaction was faster for the RhCp* complexes than for the Ru(p-cym) analogs. […] The [Ru(p-cym)(en/phen)(H2O)]^2+ complexes reached chemical equilibrium within only hours, while the reaction between 1-methylimidazole and [RhCp*(phen)(H2O)]^2+ (Figure 2) or [RhCp*(en)(H2O)]^2+ (Figure S23) was completed within 90 min. However, the fractions of the mixed-ligand complexes cannot be determined from these spectral changes in the chemical equilibrium; thus, further experiments were carried out to determine the formation constants.
Figure 2 (a) Time-dependent UV-vis spectra of the c([RhCp*(phen)(H2O)]^2+):c(1-methylimidazole) = 1:2 mixture under physiological conditions (pH = 7.4 (PBS’ buffer)). (b) Time dependence of the absorbance values at 400 nm. {c([RhCp*(phen)(H2O)]^2+) = 200 μM; c(1-methylimidazole) = 400 μM; pH = 7.40 (PBS’); t = 25 °C; ℓ = 1 cm}.

Another series is described as follows: physchem. The conditions noted are these: water with 0.10 M KCl.
The conditions of series [5]: cited from earlier work.
The nature of series [6]: Fractions of mixed-ligand complexes at 1:1 ratio at pH 6.0 and 7.4 by 1H NMR (screening of monodentate ligands). Format: physicochemical. The conditions noted are these: pH 6.0 and 7.4. How it is done: In the preliminary studies, the co-ordination ability of the monodentate ligands to the [RhCp*(en)(H2O)]^2+, [RhCp*(phen)(H2O)]^2+, and [RhCp*(8HQH-1)(H2O)]^+ complexes was tested (Chart 2). The samples contained the aqua complex and the monodentate ligand in a 1:1 ratio and were buffered at pH = 6.0 and pH = 7.4. For an ideal drug candidate, all of the monodentate ligand would be bound at pH 7.4; thus, the mixed-ligand complex would be present exclusively, which dissociates completely at pH 6.0.
Figure 1 Fractions of the formed mixed-ligand [RhCp*(N,N/O)(N)]^2+/+ complexes at c(complex):c(monodentate ligand) = 1:1 ratio measured at pH = 6.0 (full bars) and 7.4 (checkered bars). Fractions were determined by the integration of the peaks in the ^1H NMR spectra. The percentage values above the columns show the difference in the fractions of the mixed-ligand complex at the two pH values. {c([RhCp*(phen)(H2O)]^2+) = c([RhCp*(en)(H2O)]^2+) = 1 mM; c([RhCp*(8HQH−1)(H2O)]^+) = 500 μM; 10% D2O; pH = 6.0 or 7.4 (PBS’); t = 25.0 °C}. […] The percentages were assigned to (N,N) = en, (N,N) = phen and (N,O) = 8HQH-1 by bar colour only.

The conditions of series [7]: I = 0.10 M (KCl); t = 25.0 °C; pH-potentiometry (benzimidazole: UV-vis).
Method: (§1) pH-potentiometric measurements were performed to determine the protonation constants (Kp) of the ligands and the concentration of the stock solutions. These measurements were carried out at 25.0 ± 0.1 °C in water in a pH range between 2.0 and 11.5, titrating with carbonate-free KOH solution (0.10 M). […] A Thermo Scientific 0710A0 benchtop pH meter (Waltham, MA, USA), equipped with a Metrohm combined electrode (type 6.0234.100) and a Metrohm 665 Dosimat burette (Metrohm, Herisau, Switzerland) was used for these measurements. […] The initial volume of the samples was 10.0 mL, and the ligand concentration was 2.0 mM in the samples. Samples were degassed by bubbling purified argon prior to and during the measurements. The computer program Hyperquad2013 [28] was utilized to determine the protonation constants of the ligands and concentration.
(§2) The protonation constants (Kp) were determined by pH-potentiometric and UV-vis spectrophotometric titrations in the presence of 0.1 M KCl (see Table 1 and Figures S21 and S22 for examples).

Method for physchem: as §1, §2

Regarding `N.N.[Cl][Pt][Cl]` [Cisplatin], the cure rates result in the series on testicular tumors is “above 95%”.

For `Cc1c(C)c(C)[c-](C)c1C.NCCN.O=S(=O)([O-])C(F)(F)F.O=S(=O)([O-])C(F)(F)F.[Rh+3].c1ccncc1` [Complex 2], the monodentate ligand dissociated in series [1] (pH 6.0, after 5 min) is given as ~ 75%. In addition, the “released monodentate ligand at chemical equilibrium” value in [1] (pH 6.0, after half an hour) was ~ 94%. Consider `Cc1c(C)c(C)[c-](C)c1C.O=S(=O)([O-])C(F)(F)F.O=S(=O)([O-])C(F)(F)F.[Rh+3].c1ccncc1.c1cnc2c(c1)ccc1cccnc12` [Complex 4], for which, in series [2], the “dissociated complex in equilibrium with the complex” value is reported as < 5%. On to `Cc1c(C)c(C)[c-](C)c1C.NCCN.O.[Rh+3]` [[RhCp*(en)(H2O)]2+], for which the “pKa of the coordinated water molecule” value in [3] came to 10.6±0.1. In addition, the “time to completion of the reaction with 1-methylimidazole” value in series [4] is on record as ≤ 90 min. For the compound `Cc1c(C)c(C)[c-](C)c1C.O.[Rh+3].c1cnc2c(c1)ccc1cccnc12` [[RhCp*(phen)(H2O)]2+], the “pKa of the coordinated water molecule” value in series [3] is recorded as 10.05±0.01. The “time to completion of the reaction with 1-methylimidazole” value in series [4] is ≤ 90 min. For `c1ccc2[nH]cnc2c1` [benzimidazole], in “physchem”, the pKa worked out at 5.44 ± 0.01. The “logKp (= pKa), literature data” value in [5] was 5.54 [44]. Regarding `CN` [methylamine], the “interaction (co-ordination) with the RhCp* aqua complexes” value in series [6] is “no interaction was found”. The “logKp (= pKa)” value in series [7] came to 10.58 ± 0.03. In [5], the “logKp (= pKa), literature data” value was 10.51 [47].
